Patent US20250188092A1, “RIFAMYCIN ANALOGS” (THE REGENTS OF THE UNIVERSITY OF MICHIGAN, priority 2021, published 2025)
Values after ≈ are worked out from the molar mass of the structure shown. Like-named read-outs stand apart in the source and are kept apart here.

Tests used:
[1] = system: M. tuberculosis transformed with luxABCDE; assay: microbe, parasite or virus in culture; format: cell-based, Mycobacterium tuberculosis; conditions: for MBC / MIC90: Mycobacterium tuberculosis, 168 h
[2] = system: non-replicating cultures of M. tuberculosis H37Rv transformed with lux ABCDE; assay: microbe, parasite or virus in culture; format: cell-based, Mycobacterium tuberculosis; conditions: for MIC / MIC90: Mycobacterium tuberculosis, H37RV, ≥90% reduction in luminescence, read-out: MIC90 LORA; for MIC90 LORA/MABA: ratio of LORA MIC90 to MABA MIC90
[3] = […], ≥99% reduction in luminescence, read-out: MBC99 Day 7 (Lux Assay) MBC
[4] = day 7 of time-kill study, read-out: MBC99

| Compound | MBC99 Day 7 (Lux Assay) MBC Rel to RMP [1] | MBC [1, 3] | MIC90 LORA Rel to RMP [2] | MIC [2] | MIC90 LORA/MABA [2] | MIC90 [2] | MIC90 ([1]; day 7 of time-kill study) | MBC [1, 4] | more potent than RMP in terms of day 7 MBC ([1]; day 7) |
| --- | --- | --- | --- | --- | --- | --- | --- | --- | --- |
| CO[C@H]1/C=C/O[C@@]2(C)Oc3c(C)c(O)c4c(=O)c(c5oc6cccc(OCCCCN7CCN(C(=O)CN8CCOCC8)CC7)c6nc-5c4c3C2=O)NC(=O)/C(C)=C\C=C\[C@H](C)[C@H](O)[C@@H](C)[C@@H](O)[C@@H](C)[C@H](OC(C)=O)[C@@H]1C [Compound 5e, (7S,9E,11S,12R,13S,14R,15R,16R,17S,18S,19E,21Z)-2,15,17-Trihydroxy-11-methoxy-3,7,12,14,16,18,22-heptamethyl-32-(4-{4-[2-(morpholin-4-yl)acetyl]piperazin-1-yl}butoxy)-6,23,37-trioxo-8,27,38-trioxa-24,34-diazahexacyclo[23.11.1.1^4,7.0^5,36.0^26,35.0^28,33]octatriaconta-1(36)2,4,9,19,21,25,28(33)29,31,34-undecaen-13-yl acetate] | 0.09 | 0.04 µM | 0.27 | 0.047 µM | 0.57 |  |  |  |  |
| CCC(=O)N1CCN(Cc2cccc(COc3cccc4oc5c6c(=O)c7c(O)c(C)c8c(c7c-5nc34)C(=O)[C@@](C)(O/C=C/[C@H](OC)[C@@H](C)[C@@H](OC(C)=O)[C@H](C)[C@H](O)[C@H](C)[C@@H](O)[C@@H](C)/C=C/C=C(/C)C(=O)N6)O8)c2)CC1 [Compound 11d, (7S,9E,11S,12R,13S,14R,15R,16R,17S,1S,19E,21Z)-2,15,17-Trihydroxy-11-methoxy-3,7,12,14,16,18,22-heptamethyl-6,23,37-trioxo-32-{(3-[(4-propanoylpiperazin-1-yl)methyl]phenyl}methoxy)-8,27,38-trioxa-24,34-diazahexacyclo[23.11.1.1^4,7.0^5,36.0^26,35.0^28,33]octatriaconta-1(36)2,4,9,19,21,25,28,30,32,34-undecaen-13-yl acetate] | 0.08 | 0.058 µM |  |  |  | < 0.1 µM |  |  |  |
| CO[C@H]1/C=C/O[C@@]2(C)Oc3c(C)c(O)c4c(=O)c(c5oc6cccc(OCc7cccc(CN8CCN(C(=O)CN9CCOCC9)CC8)c7)c6nc-5c4c3C2=O)NC(=O)/C(C)=C\C=C\[C@H](C)[C@H](O)[C@@H](C)[C@@H](O)[C@@H](C)[C@H](OC(C)=O)[C@@H]1C [Compound 11f, (7S,9E,11S,12R,13S,14R,15R,16R,17S,1S,19E,21Z)-2,15,17-Trihydroxy-11-methoxy-3,7,12,14,16,18,22-heptamethyl-32-{[3-({4-[2-(morpholin-4-yl)acetyl]piperazin-1-yl}methyl)phenyl]methoxy}-6,23,37-trioxo-8,27,38-trioxa-24,34-diazahexacyclo[23.11.1.1^4,7.0^5,36.0^26,35.0^28,33]octatriaconta-1(36)2,4,9,19,21,25,28,30,32,34-undecaen-13-yl acetate] | 0.11 | 0.084 µM | 0.39 |  | 15 | 0.37 µM |  |  |  |
| CO[C@H]1/C=C/O[C@@]2(C)Oc3c(C)c(O)c4c(=O)c(c5oc6cccc(OCc7cccc(CN8CCN(C(=O)Cc9ccccc9)CC8)c7)c6nc-5c4c3C2=O)NC(=O)/C(C)=C\C=C\[C@H](C)[C@H](O)[C@@H](C)[C@@H](O)[C@@H](C)[C@H](OC(C)=O)[C@@H]1C [Compound 11g, (7S,9E,11S,12R,13S,14R,15R,16R,17S,18S,19E,21Z)-2,15,17-Trihydroxy-11-methoxy-3,7,12,14,16,18,22-heptamethyl-6,23,37-trioxo-32-[(3-{[4-(2-phenylacetyl)-piperazin-1-yl]methyl}phenyl)methoxy]-8,27,38-trioxa-24,34-diazahexacyclo[23.11.1.1^4,7.0^5,36.0^26,35.0^28,33]octatriaconta-1(36)2,4,9,19,21,25,28,30,32,34-undecaen-13-yl acetate] | 0.06 | 0.044 µM | 1.1 |  | 12 | 0.131 µM |  |  |  |
| CO[C@H]1/C=C/O[C@@]2(C)Oc3c(C)c(O)c4c(=O)c(c5oc6cc(N7CCN(CC(C)C)CC7)cc(OCc7cccc(CN8CCN(C(=O)Cn9ccnc9)CC8)c7)c6nc-5c4c3C2=O)NC(=O)/C(C)=C\C=C\[C@H](C)[C@H](O)[C@@H](C)[C@@H](O)[C@@H](C)[C@H](OC(C)=O)[C@@H]1C [Compound 12c, (7S,9E,11S,12R,13S,14R,15R,16R,17S,18S,19E,21Z)-2,15,17-Trihydroxy-32-{[3-({4-[2-(1H-imidazol-1-yl)acetyl]piperazin-1-yl}methyl)phenyl]methoxy}-11-methoxy-3,7,12,14,16,18,22-heptamethyl-30-[4-(2-methylpropyl)piperazin-1-yl]-6,23,37-trioxo-8,27,38-trioxa-24,34-diazahexacyclo[23.11.1.1^4,7.0^5,36.0^26,35.0^28,33]octatriaconta-1(36)2,4,9,19,21,25,28,30,32,34-undecaen-13-yl acetate] | 0.08 | 0.037 µM | 0.11 | < 0.016 µM |  |  |  |  |  |
| CO[C@H]1/C=C/O[C@@]2(C)Oc3c(C)c(O)c4c(=O)c(c5oc6cccc(OCc7ccc(CN8CCOCC8)cc7)c6nc-5c4c3C2=O)NC(=O)/C(C)=C\C=C\[C@H](C)[C@H](O)[C@@H](C)[C@@H](O)[C@@H](C)[C@H](OC(C)=O)[C@@H]1C [Compound 16d, (7S,9E,11S,12R,13S,14R,15R,16R,17S,18S,19E,21Z)-2,15,17-Trihydroxy-11-methoxy-3,7,12,14,16,18,22-heptamethyl-32-({4-[(morpholin-4-yl)methyl]phenyl}methoxy)-6,23,37-trioxo-8,27,38-trioxa-24,34-diazahexacyclo[23.11.1.1^4,7.0^5,36.0^26,35.0^28,33]octatriaconta-1(36)2,4,9,19,21,25,28,30,32,34-undecaen-13-yl acetate] | 0.20 | 0.092 µM | 0.62 |  | 8.4 | 0.031 µM |  |  |  |
| CO[C@H]1/C=C/O[C@@]2(C)Oc3c(C)c(O)c4c(=O)c(c5oc6cccc(OCc7ccc(CN8CCN(C)CC8)cc7)c6nc-5c4c3C2=O)NC(=O)/C(C)=C\C=C\[C@H](C)[C@H](O)[C@@H](C)[C@@H](O)[C@@H](C)[C@H](OC(C)=O)[C@@H]1C [Compound 16e, (7S,9E,11S,12R,13S,14R,15R,16R,17S,18S,19E,21Z)-2,15,17-trihydroxy-11-methoxy-3,7,12,14,16,18,22-heptamethyl-32-({4-[(4-methylpiperazin-1-yl)methyl]phenyl}methoxy)-6,23,37-trioxo-8,27,38-trioxa-24,34-diazahexacyclo[23.11.1.1^4,7.0^5,36.0^26,35.0^28,33]octatriaconta-1,3,5(36)9,19,21,25,28,30,32,34-undecaen-13-yl acetate] | 0.14 | 0.06 µM | 1.3 |  | 5.6 | 0.036 µM |  |  |  |
| CO[C@H]1/C=C/O[C@@]2(C)Oc3c(C)c(O)c4c(=O)c(c5oc6cc(N7CCN(CC(C)C)CC7)cc(OCc7ccc(CN8CCOCC8)cc7)c6nc-5c4c3C2=O)NC(=O)/C(C)=C\C=C\[C@H](C)[C@H](O)[C@@H](C)[C@@H](O)[C@@H](C)[C@H](OC(C)=O)[C@@H]1C [Compound 17e, (7S,9E,11S,12R,13S,14R,15R,16R,17S,18S,19E,21Z)-2,15,17-Trihydroxy-11-methoxy-3,7,12,14,16,18,22-heptamethyl-30-[4-(2-methylpropyl)piperazin-1-yl]-32-({4-[(morpholin-4-yl)methyl]phenyl}methoxy)-6,23,37-trioxo-8,27,38-trioxa-24,34-diazahexacyclo[23.11.1.1^4,7.0^5,36.0^26,35.0^28,33]octatriaconta-1(36)2,4,9,19,21,25,28,30,32,34-undecaen-13-yl acetate] | 0.20 | 0.093 µM | 0.11 | 0.0094 µM | 1.9 |  | 0.009 µM | 0.093 µM | approximately 10 fold |
| CO[C@H]1/C=C/O[C@@]2(C)Oc3c(C)c(O)c4c(=O)c(c5oc6cc(N7CCN(CC(C)C)CC7)cc(N7CCN(CC(C)C)CC7)c6nc-5c4c3C2=O)NC(=O)/C(C)=C\C=C\[C@H](C)[C@H](O)[C@@H](C)[C@@H](O)[C@@H](C)[C@H](OC(C)=O)[C@@H]1C [Compound 17u, 7S,9E,11S,12R,13S,14R,15R,16R,17S,18S,19E,21Z)-2,15,17-trihydroxy-11-methoxy-3,7,12,14,16,18,22-heptamethyl-30,32-bis[4-(2-methylpropyl)piperazin-1-yl]-6,23,37-trioxo-8,27,38-trioxa-24,34-diazahexacyclo[23.11.1.1^4,7.0^5,36.0^26,35.0^28,33]octatriaconta-1,3,5(36)9,19,21,25,28,30,32,34-undecaen-13-yl acetate] | 0.05 | 0.025 µM |  |  |  |  |  |  |  |
| NNC(=O)c1ccncc1 [Isoniazid, isoniazid, reference compound] |  |  |  |  |  |  | 0.409 µM (≈ 0.0561 µg/mL) | 3.59 µM (≈ 0.492 µg/mL) |  |
| O=[N+]([O-])c1cn2c(n1)OC[C@@H](OCc1ccc(OC(F)(F)F)cc1)C2 [Pretomanid, pretomanid, reference compound] |  |  |  |  |  |  | 0.47 µM (≈ 0.169 µg/mL) | 0.597 µM (≈ 0.214 µg/mL) |  |
